Legend:
[1] = tested on: dextran sodium sulfate-induced colitis; experiment: Remission/relapse model of dextran sodium sulfate-induced colitis in mice, therapeutic; format: in vivo, mouse; details: compound F 1 mg/kg, SASP 100 mg/kg, oral once a day for 50 days
Description: Next, therapeutic effect of compound F on colitis was studied in a chronic model. Female BALB/c mice, 6 weeks old, body weight about 20 g (Japan SLC) were purchased, acclimated for 1 week and used for the study. The mice were divided into a colitis induction group and a normal group. The colitis induction group was allowed to freely drink a 2.6 w/v % DSS (MP Biochemicals, M.W. 36,000-50,000, Lot No. 4556J) solution to induce colitis. On day 8 when the stool score (defined in Example 23) of the colitis induction group reached about 4.5, the mice were subdivided into a control group, a compound F 1 mg/kg administration group and a salazosulfapyridine (SIGMA, Lot No. 085K1930, hereinafter to be abbreviated as SASP) 100 mg/kg administration group. Then the mice were allowed to freely drink distilled water instead of DSS solution for 9 days (remission period). After the grouping, the stool score was evaluated every 3-4 days. […]
Compound F at a dose of 1 mg/kg and SASP at a dose of 100 mg/kg were orally administered once a day, daily, for 50 days from the initial remission period (day 8 from the start of 2.6 w/v % DSS drinking) to the fifth remission period (day 57 from the start of 2.6 w/v % DSS drinking). […] The remission ratio (%) was calculated as a ratio of mice in remission in each group. […]

[2] = tested on: anti-Thy-1 antibody-induced glomerulonephritis; experiment: Anti-Thy-1 antibody-induced glomerulonephritis model in rats; format: in vivo, rat; details: Wistar rats, oral 0.3 mg/kg twice a day
Procedure: Male Slc: Wistar rats (6 weeks old, Japan SLC) were purchased, acclimated for 1 week and used for the study. Except the normal group, anti-Thy-1 antibody (mouse anti-CD90 antibody (UK-Serotech Ltd. Code:MCA47XZ, clone No: MRC OX-7, Lot No. 0303)) was administered once intravenously to the animals. A mixture of compound F and compound J (F:J=52:41, indicated as compound F/J) was orally administered from the day of the antibody administration (day 0) to day 6, daily, twice a day (morning and evening; each 0.3 mg/kg). After 3 days from the antibody administration, urine was collected for one day. On day 7 of the antibody administration, the animal was autopsied. The right kidney was isolated, weighed and fixed with formalin. Five to 8 animals were used for each group and the results were expressed as average±standard deviation.

[3] = tested on: concanavalin A-induced hepatitis; experiment: Concanavalin A-induced hepatitis model in mice, prophylactic; format: in vivo, mouse; details: BALB/c mice, oral 1 hr before Con A; compound F 1 mg/10 mL/kg, prednisolone 5 mg/10 mL/kg
Procedure: The prophylactic effect of compound F on hepatitis was investigated using concanavalin A (hereinafter Con A)-induced hepatitis model.
BALB/c mice (female, 7 weeks old, Japan SLC) were purchased, acclimated for 1 week and used for the study. Except the no-induction group, Con A (type IV, Sigma-Aldrich) dissolved in saline was administered from the tail vein of the mice at a dose of 12.5 mg/10 mL/kg to induce hepatitis. Twenty hr later, the mice were subjected to laparotomy under ether anesthesia. A 0.5 mL of blood sample was collected from the caudal vena cava and heparinized plasma was obtained to measure plasma ALT and AST activities. Test substances were compound F (1 mg/10 mL solution), prednisolone (Nacalai Tesque, 5 mg/10 mL suspension (with 0.5 w/v % methylcellulose)) and water for injection (administered to the control group), which were orally administered at a volume of 10 mL/kg 1 hr before Con A injection. Seven to 9 animals were used for each group. After logarithmic transformation of the data, one-way analysis of variance was performed for statistical evaluation.

[4] = tested on: T cell transfer colitis; experiment: CD4+CD25- T cell transfer colitis model in mice; format: in vivo, mouse; details: C.B-17/Icr-scid mice, oral 1 mg/kg once a day
Description: The effect on Crohn's disease, another type of inflammatory bowel disease, was studied. T cell transfer model is well known as a Crohn's disease model, which develops chronic […] or enteritis (see: References F, G, H). In addition, it can also be regarded as an animal model of intestinal Behcet's disease or simple ulcer, suffering from similar intestinal ulcer accompanied by activation of T cells (see: References I, J).
Female BALB/cA Jcl mice, 6 weeks old, body weight 19-23 g (CLEA Japan, Inc.) and female C.B-17/Icr-scid mice (6 weeks old, CLEA Japan, Inc.) were purchased, acclimated for 1 week and used for the study.
After laparotomy under ether anesthesia, BALB/cA Jcl mice were exsanguinated to death through the abdominal aorta and caudal vena cava, and the spleen was isolated. Splenocytes were prepared from the spleen and then CD4^+CD25^− T cells were prepared with a CD4^+ T cell Isolation Kit (No. 130-090-860, Milky Biotech Co., Ltd.) and CD25-Biotin antibody (No. 130-092-569, Milky Biotech Co., Ltd.). The cells were separated using the autoMACS Separator (Milky Biotech Co., Ltd.). The separated CD4^+CD25^− T cells were suspended in physiological phosphate buffer solution, and 2.5×10^5 cells per animal were intraperitoneally administered to C.B-17/Icr-scid mice to induce colitis.
One mg/kg of compound F or prednisolone was initially administered at 5 hr before transfer of CD4^+CD25^− T cells, and orally administered thereafter once a day, daily, for 20 days. To the control group was orally administered a solvent (1 vol % ethanol solution) at 10 mL/kg. A clinical endpoint was the sum of stool consistency score (0-5), fecal occult blood score (0-4) and body weight decrease score (0-5), termed as the Disease Activity Index score (hereinafter to be abbreviated as DAI score: highest score 14). The stool consistency score was graded for the hardness of stool as normal (0), slightly loose (1), somewhat loose (2), loose (3), considerably loose (4) and diarrhea (5). The fecal occult blood score was evaluated in the same manner as in Example 23. The body weight decrease score was graded for the changes in the body weight as increase (0), decrease of less than 3% (1), decrease of not less than 3% and less than 6% (2), decrease of not less than 6% and less than 9% (3), decrease of not less than 9% and less than 12% (4), and decrease of not less than 12% (5). Eight to 10 mice were used for each group and the results were expressed as average.

[5] = target: T1, human EP4 (Homo sapiens, UniProt P35408); experiment: Receptor affinity, tritium-labeled PGE2 binding to membranes of transfected COS-7 cells; details: binding affinity ratio
T1 construct: expressed in transfected cells; host or cells: COS-7 (membranes)
Procedure: PG receptor affinity of compound F and compound J of the present invention was evaluated. Compound F used was one synthesized in Example 9, and compound J was prepared by separating and purifying the compound synthesized in Example 14 with a column (the same preparations were used in the following Examples). COS-7 cells were transfected with the genes of mouse EP4, human EP1-4 or human IP to overexpress the receptor and then the cell membranes were collected. […] The dissociation constant Kd value was obtained and inhibition constant Ki value of each test compound was determined in a conventional method.

[6] = In vitro metabolic stability: NADPH-independent β oxidation reaction in rat liver mitochondria fraction; format: in vitro ADME; details: 37° C., 30 min, tested as isomer mixtures, average±SD of 3 experiments
Procedure: A mixture of the compound F and compound J of the present invention described in Table 1 (F:J=52:41, synthesized in Example 14), and a mixture of compounds wherein the tetrazole groups at C-1 of compound F and compound J are respectively substituted by carboxylic acid (referred to as carboxylate form, F:J=54:34, synthesized in Example 15) were tested.
First, a mitochondria fraction was prepared from the rat liver according to the following Reference A. Then, in reference to the method of […] et al. described in the following References B and C, an NADPH-independent β oxidation reaction was studied. The reaction was carried out at 37° C. for 30 min, and stopped with a methanol solution containing a suitable internal standard substance. Each compound was quantified by the internal standard method using a high performance liquid chromatography mass spectrometry apparatus (LC-MS/MS). The compound residual ratio after metabolic reaction of compounds F, J and each carboxylate form thereof in rat mitochondria fraction is shown in the following Table 2 in average±standard deviation of 3 experiments.

[7] = Effect on blood pressure and heart rate in mice; format: in vivo, mouse; details: ICR mice, intravenous 0.01 mg/kg, isoflurane anesthesia
Procedure: Male ICR mice (5 weeks old, Japan SLC) were purchased, acclimated for 6 days and used for the test. The animals were treated and measured under isoflurane inhalation anesthesia (anesthesia introduced at 2.5%, maintained at 1.8-2.1%), while body temperature was kept at 37° C. with a Heat Controller (ATC-402, Unique Medical Co., Ltd.). A catheter for administration of test compounds was inserted into the left femoral vein, and another catheter was inserted into the right femoral artery and connected to a pressure transducer to record each parameter of hemodynamics.
Compound F, the carboxylate form of compound F and BPS were intravenously administered at a dose of 0.01 mg/5 mL/kg, and the effect on the mean blood pressure and heart rate was evaluated with computer software for the analysis of hemodynamics (Fluclet, Dainippon Sumitomo Pharma Co., Ltd.). To the control group was intravenously administered a solvent (1.2% ethanol solution) at 5 mL/kg in the same manner. The results are expressed as a ratio of change in each parameter before and after the drug administration. Three to 6 animals were used for each group, and the results were expressed as average±standard deviation.

[8] = tested on: dextran sodium sulfate-induced colitis; experiment: Dextran sodium sulfate-induced colitis model in mice (C57BL/6); format: in vivo, mouse; details: C57BL/6 mice, DSS, oral 0.3 mg/kg once a day
Procedure: Whether or not an IP agonist has an effect on such colitis model was determined using a selective IP agonist, BPS.
Female C57BL/6 mice (6 weeks old, Japan SLC) were purchased, acclimated for 1 week and used for the study. Except the normal group, the mice were allowed to freely drink a 3 or 2 w/v % DSS (MP Biochemicals, Lot No. 5653H and 5464H, respectively) solution for 1 week to induce colitis. BPS at a dose of 0.3 mg/kg and compound F at doses of 0.3 and 1 mg/kg were orally administered once a day, daily, from the start day of DSS drinking (day 0) to one day before autopsy (day 9). To the control group was orally administered a solvent (1 vol % ethanol solution) at 10 mL/kg in the same manner. The consistency of the stool was graded from score 0 to 4, with normal (0), partly loose stool (1), loose stool (2) and diarrhea (4). The blood feces was also graded from score 0 to 4, with normal (0), partly blood feces (1), blood feces (2) and blood feces plus proctorrhagia (4). The sum of both grades was defined as the stool score (maximum 8). Furthermore, the length of the large intestine was measured in the same manner as in Example 23. Six to 10 animals were used for each group, and the results are shown in average±standard deviation.

T1 sequence (P35408 whole entry): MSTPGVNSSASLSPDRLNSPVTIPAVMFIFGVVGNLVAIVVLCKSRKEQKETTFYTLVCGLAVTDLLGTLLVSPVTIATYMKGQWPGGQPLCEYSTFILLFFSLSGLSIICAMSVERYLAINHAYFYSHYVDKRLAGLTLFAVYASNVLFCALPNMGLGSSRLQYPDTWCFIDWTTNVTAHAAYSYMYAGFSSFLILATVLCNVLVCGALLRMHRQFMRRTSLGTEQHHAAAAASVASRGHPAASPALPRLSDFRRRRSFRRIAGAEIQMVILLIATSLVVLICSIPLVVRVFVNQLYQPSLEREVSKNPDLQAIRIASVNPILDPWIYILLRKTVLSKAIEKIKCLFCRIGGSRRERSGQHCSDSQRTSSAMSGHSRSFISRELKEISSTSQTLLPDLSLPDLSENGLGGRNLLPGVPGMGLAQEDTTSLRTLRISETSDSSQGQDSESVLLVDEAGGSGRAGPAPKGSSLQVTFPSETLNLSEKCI

O=C(O)c1cc(/N=N/c2ccc(S(=O)(=O)Nc3ccccn3)cc2)ccc1O [SASP, salazosulfapyridine, reference compound]
Effect on stool score in remission and relapse periods [1]: did not show a clear effect

Cc1cccc(C(C)[C@H](O)/C=C/[C@@H]2[C@@H]3[C@H](C[C@H]2O)O/C(=C\CCCc2nnn[nH]2)C3(F)F)c1 (mixture of isomers) [compound F/J, 4-[(Z)-(1S,5R,6R,7R)-6-[(1E,3R,4RS)-3-hydroxy-4-(m-tolyl)-1-pentenyl]-7-hydroxy-2-oxa-4,4-difluoro-bicyclo[3.3.0]octan-3-ylidene]-1-(tetrazol-5-yl)butane]
24-hr urine protein [2]: lower value than control
24-hr urine volume [2]: of the same level as the normal group
Body weight [2]: shift similar to that of the control group
Relative kidney weight [2]: lower than control and near the normal
Renal histopathology: total glomerular cells, mesangial region and PCNA-positive cells in the glomerulus [2]: significantly suppressed the increase

C[C@]12C=CC(=O)C=C1CC[C@@H]1[C@@H]2[C@@H](O)C[C@@]2(C)[C@H]1CC[C@]2(O)C(=O)CO [prednisolone, reference compound]
Effect on increase of plasma ALT and plasma AST activities [3]: significantly and strongly suppressed the increase
Effect on body weight decrease score [4]: clearly worsened the score
Effect on fecal occult blood score [4]: suppressed an increase in the fecal occult blood score by almost the same level as the compound F administration
Effect on stool consistency score [4]: failed to show a clear effect

Cc1cccc([C@H](C)[C@H](O)/C=C/[C@@H]2[C@@H]3[C@H](C[C@H]2O)O/C(=C\CCCc2nnn[nH]2)C3(F)F)c1 [Compound J, 4-[(Z)-(1S,5R,6R,7R)-6-[(1E,3R,4S)-3-hydroxy-4-(m-tolyl)-1-pentenyl]-7-hydroxy-2-oxa-4,4-difluoro-bicyclo[3.3.0]octan-3-ylidene]-1-(tetrazol-5-yl)butane]
Affinity for human EP4 higher than to human IP [5]: 40 fold
Residual ratio of parent compound after β-oxidation reaction [6]: 90.1 ± 6.9%

CC#CCC(C)[C@H](O)/C=C/[C@@H]1[C@H]2c3cccc(CCCC(=O)O)c3O[C@H]2C[C@H]1O (mixture of isomers) [BPS, beraprost sodium, reference compound]
Effect on heart rate [7]: on the increase and remained high even after 10 min
Maximum decrease ratio of mean blood pressure [7]: 38%
Effect on shortening of the large intestine [8]: no effect
Effect on stool score [8]: tendency toward aggravation

From US9034906B2, “EP4 agonist” (Asahi Glass Company, Limited, priority 2008, dated 2015)
